This is an account of results in US9932341B2, “Use of pyrazolopyrimidine derivatives for the treatment of PI3K-delta related disorders” (Incyte Corporation, priority 2013, dated 2018).

This experiment concerns the target PI3Kδ (p110δ/p85α) (Homo sapiens (Human), UniProt O00329). Nature of the experiment: PI3Kδ Scintillation Proximity Assay (Example A3). The experiment is classed as biochemical. The conditions noted are these: 20 μM ATP, 20 μM PIP2, 4 nM PI3Kδ, read-out: PI3Kδ SPA IC50. The procedure:
[γ-^33P]ATP (10 mCi/mL) was purchased from PerkinElmer (Waltham, Mass.). […] PI3Kδ (p110δ/p85α) was purchased from Millipore (Bedford, Mass.). ATP, MgCl2, DTT, EDTA, MOPS and CHAPS were purchased from Sigma-Aldrich (St. Louis, Mo.). Wheat Germ Agglutinin (WGA) YSi SPA Scintillation Beads was purchased from GE healthcare life sciences (Piscataway, N.J.).
The kinase reaction was conducted in polystyrene 384-well matrix white plate from Thermo Fisher Scientific in a final volume of 25 μL. Inhibitors were first diluted serially in DMSO and added to the plate wells before the addition of other reaction components. The final concentration of DMSO in the assay was 0.5%. The PI3K assays were carried out at room temperature in 20 mM MOPS, pH 6.7, 10 mM MgCl2, 5 mM DTT and CHAPS 0.03%. Reactions were initiated by the addition of ATP, the final reaction mixture consisted of 20 μM PIP2, 20 μM ATP, 0.2 μCi [γ-^33P] ATP, 4 nM PI3Kδ. […] 25 mM EDTA, 400 μM ATP. The final concentration of SPA beads was 1.0 mg/mL. After the plate sealing, plates were shaken overnight at room temperature and centrifuged at 1800 rpm for 10 minutes, the radioactivity of the product was determined by scintillation counting on Topcount (PerkinElmer). IC50 determination was performed by fitting the curve of percent control activity versus the log of the inhibitor concentration using the GraphPad Prism 3.0 software.
Background: Scintillation proximity formats need no separation of bound from free tracer.

Where a name gives a salt, the structure may show the parent alone. A value given as a limit tells only on which side of the number the result lay.

Chain of PI3Kδ (p110δ/p85α) (O00329 whole entry): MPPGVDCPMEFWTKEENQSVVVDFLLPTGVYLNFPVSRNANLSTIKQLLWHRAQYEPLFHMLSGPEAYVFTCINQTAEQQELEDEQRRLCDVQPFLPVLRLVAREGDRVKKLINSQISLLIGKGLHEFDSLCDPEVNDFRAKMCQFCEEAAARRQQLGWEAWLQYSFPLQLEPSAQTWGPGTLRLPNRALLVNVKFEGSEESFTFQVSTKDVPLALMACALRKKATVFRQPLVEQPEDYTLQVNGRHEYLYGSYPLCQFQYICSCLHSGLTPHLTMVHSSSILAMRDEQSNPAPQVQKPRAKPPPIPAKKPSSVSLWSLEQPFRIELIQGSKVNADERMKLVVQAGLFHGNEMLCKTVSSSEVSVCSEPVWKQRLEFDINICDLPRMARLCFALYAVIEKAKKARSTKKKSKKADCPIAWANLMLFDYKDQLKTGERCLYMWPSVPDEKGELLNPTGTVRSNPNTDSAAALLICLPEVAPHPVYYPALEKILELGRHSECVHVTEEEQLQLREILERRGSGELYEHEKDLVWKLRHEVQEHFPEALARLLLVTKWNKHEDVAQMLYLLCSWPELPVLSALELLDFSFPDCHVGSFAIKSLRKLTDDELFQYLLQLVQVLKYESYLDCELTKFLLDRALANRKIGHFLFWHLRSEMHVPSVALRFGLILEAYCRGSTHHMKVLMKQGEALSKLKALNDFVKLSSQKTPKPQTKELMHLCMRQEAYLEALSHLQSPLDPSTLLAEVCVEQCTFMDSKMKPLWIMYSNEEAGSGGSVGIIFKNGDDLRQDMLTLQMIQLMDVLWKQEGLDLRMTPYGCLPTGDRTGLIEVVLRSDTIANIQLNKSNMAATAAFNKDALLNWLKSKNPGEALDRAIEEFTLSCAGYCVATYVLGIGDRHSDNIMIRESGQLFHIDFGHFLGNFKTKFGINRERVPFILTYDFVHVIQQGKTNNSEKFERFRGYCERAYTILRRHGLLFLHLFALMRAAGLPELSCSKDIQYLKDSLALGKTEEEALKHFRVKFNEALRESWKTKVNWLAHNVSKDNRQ
Chain of PI3Kδ (p110δ/p85α) (P27986 whole entry partner): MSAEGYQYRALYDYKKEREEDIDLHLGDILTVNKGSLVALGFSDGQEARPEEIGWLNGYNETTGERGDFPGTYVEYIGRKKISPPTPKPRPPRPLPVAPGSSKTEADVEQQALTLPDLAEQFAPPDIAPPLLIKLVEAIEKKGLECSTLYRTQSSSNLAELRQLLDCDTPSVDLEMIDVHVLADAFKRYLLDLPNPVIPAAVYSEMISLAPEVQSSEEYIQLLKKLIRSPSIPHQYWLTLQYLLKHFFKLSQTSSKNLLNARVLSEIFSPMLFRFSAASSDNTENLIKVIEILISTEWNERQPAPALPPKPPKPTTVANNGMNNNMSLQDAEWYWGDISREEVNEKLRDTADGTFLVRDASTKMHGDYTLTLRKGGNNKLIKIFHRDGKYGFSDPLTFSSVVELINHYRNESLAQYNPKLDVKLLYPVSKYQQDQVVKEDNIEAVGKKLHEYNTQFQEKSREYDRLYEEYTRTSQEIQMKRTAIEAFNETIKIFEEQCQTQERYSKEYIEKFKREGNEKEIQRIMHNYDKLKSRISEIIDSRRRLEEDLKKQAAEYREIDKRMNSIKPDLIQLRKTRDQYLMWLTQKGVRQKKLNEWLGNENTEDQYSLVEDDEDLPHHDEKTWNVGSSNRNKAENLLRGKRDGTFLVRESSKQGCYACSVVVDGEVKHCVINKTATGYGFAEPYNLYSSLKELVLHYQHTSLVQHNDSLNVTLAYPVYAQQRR

The term IC50 denotes the concentration that gives 50% inhibition. On to `CCOc1c(C(C)n2cc(C)c3c(N)ncnc32)cc(Cl)c(C#N)c1C1CN(C(C)C)C1` (single isomer, unassigned) [Example 307, 4-[1-(4-Amino-5-methyl-7H-pyrrolo[2,3-d]pyrimidin-7-yl)ethyl]-6-chloro-3-ethoxy-2-(1-isopropylazetidin-3-yl)benzonitrile], for which the IC50 is less than 10 nM.

Turning to `CCN1CC(c2c(C)c(Cl)cc(C(C)n3nc(C)c4c(N)ncnc43)c2OC)C1` (racemic) [Example 6, 1-{1-[5-Chloro-3-(1-ethylazetidin-3-yl)-2-methoxy-4-methylphenyl]ethyl}-3-methyl-1H-pyrazolo[3,4-d]pyrimidin-4-amine], the IC50 is less than 10 nM.

On to `COc1c(C(C)n2nc(C)c3c(N)ncnc32)cc(Cl)c(C)c1-c1ccc(C(=O)N(C)C)nc1` (centres unmarked) [Example 11, 5-{3-[1-(4-Amino-3-methyl-1H-pyrazolo[3,4-d]pyrimidin-1-yl)ethyl]-5-chloro-2-methoxy-6-methylphenyl}-N,N-dimethylpyridine-2-carboxamide bis(trifluoroacetate)], for which the IC50 is less than 10 nM.

For `COc1c(C(C)n2nc(C)c3c(N)ncnc32)cc(Cl)c(F)c1C1CN(C[C@H](C)O)C1` (stereo partly drawn) [68 (1st peak), (2S)-1-(3-{3-[1-(4-Amino-3-methyl-1H-pyrazolo[3,4-d]pyrimidin-1-yl)ethyl]-5-chloro-6-fluoro-2-methoxyphenyl}azetidin-1-yl)propan-2-ol], the IC50 is less than 10 nM.

In the case of `CCOc1c(C(C)n2nc(C)c3c(N)ncnc32)cc(Cl)c(C#N)c1C1CNC(=O)O1` (stereo not drawn) [323 (1st peak), 4-[1-(4-amino-3-methyl-1H-pyrazolo[3,4-d]pyrimidin-1-yl)ethyl]-6-chloro-3-ethoxy-2-(2-oxo-1,3-oxazolidin-5-yl)benzonitrile], the IC50 is less than 10 nM.

Take “1-(1-(5-chloro-2-methoxy-4-methyl-3-(pyrimidin-5-yl)phenyl)ethyl)-3-methyl-1H-pyrazolo[3,4-d]pyrimidin-4-amine [Example 168]”: the IC50 was less than 10 nM.

For the compound `COc1c(C(C)n2nc(C)c3c(N)ncnc32)cc(Cl)c(C)c1-c1ccc(OCCO)nc1` (single isomer, unassigned) [Example 188, 2-(5-(3-(1-(4-Amino-3-methyl-1H-pyrazolo[3,4-d]pyrimidin-1-yl)ethyl)-5-chloro-2-methoxy-6-methylphenyl)pyridin-2-yloxy)ethanol], the IC50 is less than 10 nM.

On to `COc1c(C(C)n2nc(C)c3c(N)ncnc32)cc(Cl)c(C)c1-c1ccc(NCCO)nc1` (single isomer, unassigned) [Example 184, 2-[(5-{3-[1-(4-Amino-3-methyl-1H-pyrazolo[3,4-d]pyrimidin-1-yl)ethyl]-5-chloro-2-methoxy-6-methylphenyl}pyridin-2-yl)amino]ethanol], for which the IC50 was less than 10 nM.

For the compound `COc1c(C(C)n2nc(C)c3c(N)ncnc32)cc(C)c(C#N)c1C1CN(C[C@H](C)O)C1` (single isomer, unassigned) [Example 315], the IC50 was less than 10 nM.

For the compound `CCC(=O)N1CC(c2c(C)c(Cl)cc(C(C)n3nc(C)c4c(N)ncnc43)c2OC)C1` (centres unmarked) [Example 3, 1-{1-[5-Chloro-2-methoxy-4-methyl-3-(1-propionylazetidin-3-yl)phenyl]ethyl}-3-methyl-1H-pyrazolo[3,4-d]pyrimidin-4-amine trifluoroacetate], the concentration for half-maximal inhibition (IC50) is less than 10 nM.

Regarding `COc1c(C(C)n2nc(C)c3c(N)ncnc32)cc(Cl)c(C#N)c1C1CN(C[C@H](C)O)C1` (stereo partly drawn) [Example 269, 4-[1-(4-Amino-3-methyl-1H-pyrazolo[3,4-d]pyrimidin-1-yl)ethyl]-6-chloro-2-{1-[(2S)-2-hydroxypropyl]azetidin-3-yl}-3-methoxybenzo nitrile], the IC50 was less than 10 nM.

Take `CCOc1c(C(C)n2nc(C)c3c(N)ncnc32)cc(Cl)c(C#N)c1C1CN(C(C)(C)CO)C1` (single isomer, unassigned) [Example 237, 4-[1-(4-Amino-3-methyl-1H-pyrazolo[3,4-d]pyrimidin-1-yl)ethyl]-6-chloro-3-ethoxy-2-[1-(2-hydroxy-1,1-dimethylethyl)azetidin-3-yl]benzonitrile]: the IC50 is less than 10 nM.

In the case of `CCC(C)N1CC(c2c(C)c(Cl)cc(C(C)n3nc(C)c4c(N)ncnc43)c2OC)C1` (centres unmarked) [Example 8, 1-{1-[3-(1-sec-butylazetidin-3-yl)-5-chloro-2-methoxy-4-methylphenyl]ethyl}-3-methyl-1H-pyrazolo[3,4-d]pyrimidin-4-amine], the IC50 is less than 10 nM.

As for `COc1c(C(C)n2nc(C)c3c(N)ncnc32)cc(Cl)c(F)c1C1CN(CCO)C1` (racemic) [Example 71, 2-(3-{3-[1-(4-Amino-3-methyl-1H-pyrazolo[3,4-d]pyrimidin-1-yl)ethyl]-5-chloro-6-fluoro-2-methoxyphenyl}azetidin-1-yl)ethanol], the IC50 was less than 10 nM.

For `COc1c(C(C)n2nc(C)c3c(N)ncnc32)cc(Cl)c(C)c1C1CN(C(C)C)C1` (single isomer, unassigned) [Example 1, 1-{1-[5-Chloro-3-(1-isopropylazetidin-3-yl)-2-methoxy-4-methylphenyl]ethyl}-3-methyl-1H-pyrazolo[3,4-d]pyrimidin-4-amine bis(trifluoroacetate)], the half-inhibitory concentration (IC50) was less than 10 nM.

With `COc1c(C(C)n2nc(C)c3c(N)ncnc32)cc(Cl)c(C)c1C1CN(C2(CC#N)CCC2)C1` (single isomer, unassigned) [Example 161, [1-(3-{3-[1-(4-Amino-3-methyl-1H-pyrazolo[3,4-d]pyrimidin-1-yl)ethyl]-5-chloro-2-methoxy-6-methylphenyl}azetidin-1-yl)cyclobutyl]acetonitrile], the IC50 is less than 10 nM.

Consider `COc1c(C(C)n2nc(C)c3c(N)ncnc32)cc(Cl)c(C)c1C1CN(CC(C)O)C1` (stereo in doubt) [Example 102, (2S)-1-(3-{3-[1-(4-Amino-3-methyl-1H-pyrazolo[3,4-d]pyrimidin-1-yl)ethyl]-5-chloro-2-methoxy-6-methylphenyl}azetidin-1-yl)propan-2-ol], for which the half-maximal inhibitory concentration (IC50) was less than 10 nM.

Consider `CCOc1c(C(C)n2nc(C)c3c(N)ncnc32)cc(Cl)c(C#N)c1C1CN(C(=O)C(C)(C)O)C1` (single isomer, unassigned) [Example 247, 4-[1-(4-Amino-3-methyl-1H-pyrazolo[3,4-d]pyrimidin-1-yl)ethyl]-6-chloro-3-ethoxy-2-[1-(2-hydroxy-2-methylpropanoyl)azetidin-3-yl]benzonitrile], for which the IC50 was less than 10 nM.

With `CNC(=O)c1ccc(-c2c(C)c(Cl)cc(C(C)n3nc(C)c4c(N)ncnc43)c2OC)cc1F` (single isomer, unassigned) [Example 22, 3′-[1-(4-Amino-3-methyl-1H-pyrazolo[3,4-d]pyrimidin-1-yl)ethyl]-5′-chloro-3-fluoro-2′-methoxy-N,6′-dimethylbiphenyl-4-carboxamide trifluoroacetate], the IC50 was less than 10 nM.

`COc1c(C(C)n2nc(C)c3c(N)ncnc32)cc(Cl)c(C)c1C1CNC(=O)CO1` (single isomer, unassigned) [324 (2nd peak), 6-{3-[1-(4-Amino-3-methyl-1H-pyrazolo[3,4-d]pyrimidin-1-yl)ethyl]-5-chloro-2-methoxy-6-methylphenyl}morpholin-3-one]: the IC50 is less than 10 nM.

For `CNC(=O)c1cc(-c2c(C)c(Cl)cc(C(C)n3nc(C)c4c(N)ncnc43)c2OC)ccn1` (racemic) [Example 17, 4-(3-(1-(4-amino-3-methyl-1H-pyrazolo[3,4-c]pyrimidin-1-yl)ethyl)-5-chloro-2-methoxy-6-methylphenyl)-N-methylpicolinamide], the IC50 was less than 10 nM.

For the compound `CCOc1c(C(C)n2nc(C)c3c(N)ncnc32)cc(Cl)c(F)c1C1CN(CC(C)(C)O)C1` (racemic) [Example 140, 1-(3-{3-[1-(4-Amino-3-methyl-1H-pyrazolo[3,4-d]pyrimidin-1-yl)ethyl]-5-chloro-2-ethoxy-6-fluorophenyl}azetidin-1-yl)-2-methylpropan-2-ol], the IC50 was less than 10 nM.

Turning to `CCOc1c(C(C)n2nc(C)c3c(N)ncnc32)cc(Cl)c(C#N)c1-c1ccc(C(=O)N(C)C)nc1` (racemic) [Example 44, 5-(3-(1-(4-amino-3-methyl-1H-pyrazolo[3,4-d]pyrimidin-1-yl)ethyl)-5-chloro-6-cyano-2-ethoxyphenyl)-N,N-dimethylpicolinamide], the IC50 was less than 10 nM.

As for `CCOc1c(C(C)n2nc(C)c3c(N)ncnc32)cc(Cl)c(C#N)c1N1CCCC1` (racemic) [Example 318, 4-[1-(4-amino-3-methyl-1H-pyrazolo[3,4-d]pyrimidin-1-yl)ethyl]-6-chloro-3-ethoxy-2-pyrrolidin-1-ylbenzo nitrile], the IC50 is less than 10 nM.

As to `COc1c(C(C)n2nc(C)c3c(N)ncnc32)cc(Cl)c(C)c1C1CN(CCO)C1` (single isomer, unassigned) [Example 104, 2-(3-{3-[1-(4-Amino-3-methyl-1H-pyrazolo[3,4-d]pyrimidin-1-yl)ethyl]-5-chloro-2-methoxy-6-methylphenyl}azetidin-1-yl)ethanol], the IC50 is less than 10 nM.

Consider `COc1c([C@H](C)n2nc(C)c3c(N)ncnc32)cc(Cl)c(C#N)c1C1CN(C[C@@H](C)O)C1` [Example 362], for which the IC50 is less than 10 nM.
